Laboratory results reported in ChEMBL document CHEMBL5465560, “Selectivity Literature for EUbOPEN Chemogenomic Library” (2024).

Assays:
[1] = target: Serine/threonine-protein kinase 24 (Homo sapiens) (UniProt Q9Y6E0); experiment: Selectivity interaction (Kinase panel (KiNativ target engagement assay in Jurkat cells)) EUB0001635a STK24; format: cell-based; conditions: Selectivity number of off-targets 0.0, Selectivity number of targets 233.0, Source Knowledge https://www.sciencedirect.com/science/article/pii/S2451945619300674?via%3Dihub, at 1 µM
[2] = target: Serine/threonine-protein kinase PRP4 homolog (Homo sapiens) (UniProt Q13523); experiment: Selectivity interaction (Kinase panel (KiNativ target engagement assay in Jurkat cells)) EUB0001635a PRPF4; format: cell-based; conditions: Selectivity number of off-targets 0.0, Selectivity number of targets 233.0, Source Knowledge https://www.sciencedirect.com/science/article/pii/S2451945619300674?via%3Dihub, at 1 µM
[3] = target: Casein kinase I isoform gamma-1 (Homo sapiens) (UniProt Q9HCP0); experiment: Selectivity interaction (KinomeScan (DiscoverX)) EUB0001079a CSNK1G1; conditions: at 1 µM
Chain of Casein kinase I isoform gamma-1 (Homo sapiens) (Q9HCP0 whole entry, looked up, canonical isoform): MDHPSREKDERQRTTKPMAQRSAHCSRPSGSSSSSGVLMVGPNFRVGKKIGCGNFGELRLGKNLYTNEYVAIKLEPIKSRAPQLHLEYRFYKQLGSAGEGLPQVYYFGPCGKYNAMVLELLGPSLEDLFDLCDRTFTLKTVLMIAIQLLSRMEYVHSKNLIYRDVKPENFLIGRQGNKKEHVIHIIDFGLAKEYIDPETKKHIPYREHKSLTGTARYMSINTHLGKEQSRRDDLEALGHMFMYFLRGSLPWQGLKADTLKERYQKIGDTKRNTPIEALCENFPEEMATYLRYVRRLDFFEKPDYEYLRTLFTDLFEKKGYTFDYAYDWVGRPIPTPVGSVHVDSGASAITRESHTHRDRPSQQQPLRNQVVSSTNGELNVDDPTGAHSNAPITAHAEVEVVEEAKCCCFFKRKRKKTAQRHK

[4] = target: CDK9/Cyclin K (Homo sapiens) (UniProt P50750+O75909); experiment: Selectivity interaction (LanthaScreen Eu Kinase Binding Assay) EUB0001632a CDK9; format: protein-complex assay; conditions: at 10 µM
[5] = target: Serine/threonine-protein kinase PAK 2 (Homo sapiens) (UniProt Q13177); experiment: Selectivity interaction (KinomeScan (DiscoverX)) EUB0000666a PAK2; conditions: at 10 µM
[6] = target: Tyrosine-protein kinase JAK2 (Homo sapiens, UniProt O60674); experiment: Selectivity interaction (Kinase counterscreening (biochemical assay)) EUB0000604a JAK2
Chain of Tyrosine-protein kinase JAK2 (O60674 whole entry): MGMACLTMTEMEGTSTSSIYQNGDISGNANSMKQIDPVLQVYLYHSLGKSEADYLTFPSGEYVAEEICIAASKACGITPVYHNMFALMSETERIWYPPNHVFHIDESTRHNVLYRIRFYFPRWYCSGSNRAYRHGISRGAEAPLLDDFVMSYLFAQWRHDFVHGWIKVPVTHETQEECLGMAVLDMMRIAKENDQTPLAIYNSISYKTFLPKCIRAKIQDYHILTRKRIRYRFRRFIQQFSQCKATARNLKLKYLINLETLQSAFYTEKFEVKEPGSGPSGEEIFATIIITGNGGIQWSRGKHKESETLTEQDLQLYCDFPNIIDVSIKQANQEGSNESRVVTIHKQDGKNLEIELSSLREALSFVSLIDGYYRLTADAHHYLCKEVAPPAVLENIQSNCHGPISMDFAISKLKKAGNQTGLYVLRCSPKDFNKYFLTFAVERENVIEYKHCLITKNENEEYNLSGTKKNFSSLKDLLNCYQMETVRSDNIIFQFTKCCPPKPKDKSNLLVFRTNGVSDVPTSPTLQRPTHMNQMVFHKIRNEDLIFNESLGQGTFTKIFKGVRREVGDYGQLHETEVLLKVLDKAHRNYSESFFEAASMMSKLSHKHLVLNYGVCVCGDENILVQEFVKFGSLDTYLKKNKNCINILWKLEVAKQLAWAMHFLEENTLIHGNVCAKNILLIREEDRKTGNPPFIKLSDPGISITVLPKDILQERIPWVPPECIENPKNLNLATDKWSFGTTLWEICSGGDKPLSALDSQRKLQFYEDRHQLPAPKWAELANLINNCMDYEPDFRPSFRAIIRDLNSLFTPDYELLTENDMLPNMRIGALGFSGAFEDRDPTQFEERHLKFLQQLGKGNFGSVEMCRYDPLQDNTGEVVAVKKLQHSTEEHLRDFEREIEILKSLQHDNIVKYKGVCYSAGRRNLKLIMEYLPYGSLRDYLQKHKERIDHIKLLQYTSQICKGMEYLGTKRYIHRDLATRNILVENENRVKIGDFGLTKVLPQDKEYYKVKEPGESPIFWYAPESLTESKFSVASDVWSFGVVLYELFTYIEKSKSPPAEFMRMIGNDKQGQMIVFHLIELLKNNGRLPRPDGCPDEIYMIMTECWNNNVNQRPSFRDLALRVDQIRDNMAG

[7] = target: Cyclin-dependent kinase 7 (Homo sapiens, UniProt P50613); experiment: Selectivity interaction (KINOMEscan (DiscoverX, competition-binding assay)) EUB0001868a CDK7
Chain of Cyclin-dependent kinase 7 (P50613 whole entry): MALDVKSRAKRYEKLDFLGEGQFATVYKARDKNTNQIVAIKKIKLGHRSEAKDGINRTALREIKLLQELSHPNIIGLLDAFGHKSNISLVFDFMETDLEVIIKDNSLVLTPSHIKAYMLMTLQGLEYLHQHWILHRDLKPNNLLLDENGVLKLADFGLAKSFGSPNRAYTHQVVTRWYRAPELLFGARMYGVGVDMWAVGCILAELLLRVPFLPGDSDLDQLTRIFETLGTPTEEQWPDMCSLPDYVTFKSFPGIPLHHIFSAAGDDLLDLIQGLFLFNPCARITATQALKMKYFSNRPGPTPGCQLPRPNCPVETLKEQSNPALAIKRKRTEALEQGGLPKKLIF

[8] = target: T1, Mitogen-activated protein kinase 12 (Homo sapiens) (UniProt P53778); experiment: Selectivity interaction (Kinase panel (literature)) EUB0001199aCl MAPK12; conditions: at 1 µM
T1 sequence (whole entry): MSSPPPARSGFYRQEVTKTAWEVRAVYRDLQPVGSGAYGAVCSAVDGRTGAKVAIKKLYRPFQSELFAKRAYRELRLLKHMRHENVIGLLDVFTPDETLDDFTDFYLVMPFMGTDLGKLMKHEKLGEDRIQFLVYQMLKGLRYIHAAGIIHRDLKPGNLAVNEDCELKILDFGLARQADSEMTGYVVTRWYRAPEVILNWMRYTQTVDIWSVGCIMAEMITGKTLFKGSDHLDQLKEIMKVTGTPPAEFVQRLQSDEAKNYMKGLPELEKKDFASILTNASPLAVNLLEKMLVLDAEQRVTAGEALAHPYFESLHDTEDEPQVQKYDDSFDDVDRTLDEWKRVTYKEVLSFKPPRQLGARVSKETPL

[9] = target: T2, Serine/threonine-protein kinase TAO2 (Homo sapiens) (UniProt Q9UL54); experiment: Selectivity interaction (Kinase panel (literature)) EUB0001199aCl TAOK2; conditions: at 1 µM
T2 sequence (whole entry): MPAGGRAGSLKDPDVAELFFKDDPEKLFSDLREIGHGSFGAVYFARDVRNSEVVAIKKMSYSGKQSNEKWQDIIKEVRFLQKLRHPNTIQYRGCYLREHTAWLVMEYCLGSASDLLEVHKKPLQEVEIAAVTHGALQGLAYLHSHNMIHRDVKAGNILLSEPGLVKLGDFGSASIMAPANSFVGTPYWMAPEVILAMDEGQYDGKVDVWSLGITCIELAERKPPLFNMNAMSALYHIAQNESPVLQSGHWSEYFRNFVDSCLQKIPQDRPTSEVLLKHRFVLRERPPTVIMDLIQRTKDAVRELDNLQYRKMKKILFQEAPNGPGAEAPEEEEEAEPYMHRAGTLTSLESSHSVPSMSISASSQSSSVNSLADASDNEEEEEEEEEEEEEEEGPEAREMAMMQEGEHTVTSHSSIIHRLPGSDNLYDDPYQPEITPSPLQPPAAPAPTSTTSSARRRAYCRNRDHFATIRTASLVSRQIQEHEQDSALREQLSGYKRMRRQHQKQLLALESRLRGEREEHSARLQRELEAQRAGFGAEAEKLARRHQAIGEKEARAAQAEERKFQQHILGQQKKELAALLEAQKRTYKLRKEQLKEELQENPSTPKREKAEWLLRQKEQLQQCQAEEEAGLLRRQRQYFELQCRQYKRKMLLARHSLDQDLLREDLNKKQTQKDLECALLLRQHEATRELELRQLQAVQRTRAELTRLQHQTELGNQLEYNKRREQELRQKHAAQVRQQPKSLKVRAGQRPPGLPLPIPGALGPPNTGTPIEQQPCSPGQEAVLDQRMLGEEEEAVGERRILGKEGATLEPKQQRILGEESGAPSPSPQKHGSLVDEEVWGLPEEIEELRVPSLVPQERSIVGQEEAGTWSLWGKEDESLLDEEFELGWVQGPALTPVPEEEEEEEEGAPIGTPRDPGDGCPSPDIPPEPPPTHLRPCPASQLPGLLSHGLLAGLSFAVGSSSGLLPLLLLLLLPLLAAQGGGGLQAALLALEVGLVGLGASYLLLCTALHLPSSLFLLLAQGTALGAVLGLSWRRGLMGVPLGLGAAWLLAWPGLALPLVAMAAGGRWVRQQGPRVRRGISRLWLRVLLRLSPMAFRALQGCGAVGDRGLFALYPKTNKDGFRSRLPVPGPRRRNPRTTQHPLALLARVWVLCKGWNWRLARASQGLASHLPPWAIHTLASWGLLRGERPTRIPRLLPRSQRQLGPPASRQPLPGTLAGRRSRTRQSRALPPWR

[10] = tested on: Phosphatidylinositol 4,5-bisphosphate 3-kinase catalytic subunit alpha isoform (Homo sapiens), P42336 [E545A]; experiment: (§1) Selectivity interaction (KinomeScan (DiscoverX)) EUB0000655a PIK3CA; conditions: at 10 µM
[11] = tested on: Phosphatidylinositol 4,5-bisphosphate 3-kinase catalytic subunit alpha isoform (Homo sapiens), P42336 [I800L]; experiment: as §1; conditions: at 10 µM
[12] = tested on: Phosphatidylinositol 4,5-bisphosphate 3-kinase catalytic subunit alpha isoform (Homo sapiens), P42336 [M1043I]; experiment: as §1; conditions: at 10 µM
Chain of Phosphatidylinositol 4,5-bisphosphate 3-kinase catalytic subunit alpha isoform (Homo sapiens), P42336 [M1043I] (P42336 whole entry M1043I, canonical isoform): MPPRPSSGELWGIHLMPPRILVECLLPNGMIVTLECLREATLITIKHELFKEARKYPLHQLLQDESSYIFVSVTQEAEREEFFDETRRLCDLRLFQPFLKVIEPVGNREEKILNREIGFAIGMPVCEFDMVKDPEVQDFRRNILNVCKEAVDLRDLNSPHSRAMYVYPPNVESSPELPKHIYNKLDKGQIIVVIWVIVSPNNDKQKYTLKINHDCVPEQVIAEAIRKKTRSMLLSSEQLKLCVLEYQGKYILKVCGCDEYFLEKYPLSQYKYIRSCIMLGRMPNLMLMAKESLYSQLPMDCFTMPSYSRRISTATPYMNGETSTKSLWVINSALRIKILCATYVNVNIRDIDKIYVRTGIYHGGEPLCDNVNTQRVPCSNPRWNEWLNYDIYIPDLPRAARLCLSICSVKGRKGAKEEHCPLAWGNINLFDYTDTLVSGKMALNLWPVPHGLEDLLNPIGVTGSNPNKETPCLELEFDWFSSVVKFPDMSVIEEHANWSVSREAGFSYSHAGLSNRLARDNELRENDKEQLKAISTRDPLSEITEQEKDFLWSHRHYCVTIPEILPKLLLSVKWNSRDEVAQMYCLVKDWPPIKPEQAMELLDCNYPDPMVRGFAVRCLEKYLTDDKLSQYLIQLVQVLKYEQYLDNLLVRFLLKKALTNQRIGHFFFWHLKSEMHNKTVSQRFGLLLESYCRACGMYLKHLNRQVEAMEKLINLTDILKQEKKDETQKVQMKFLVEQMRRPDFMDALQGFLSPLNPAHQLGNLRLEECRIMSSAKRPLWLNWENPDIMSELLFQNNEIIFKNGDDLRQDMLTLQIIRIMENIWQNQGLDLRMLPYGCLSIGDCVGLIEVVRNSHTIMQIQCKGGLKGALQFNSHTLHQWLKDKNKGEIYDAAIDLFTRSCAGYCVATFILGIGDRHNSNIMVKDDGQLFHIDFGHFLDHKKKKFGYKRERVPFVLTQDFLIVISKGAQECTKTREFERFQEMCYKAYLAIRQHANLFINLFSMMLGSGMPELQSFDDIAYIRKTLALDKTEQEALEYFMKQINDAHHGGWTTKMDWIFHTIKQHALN

[13] = tested on: Phosphatidylinositol 4,5-bisphosphate 3-kinase catalytic subunit alpha isoform (Homo sapiens), P42336 [E545K]; experiment: as §1; conditions: at 10 µM
[14] = tested on: Phosphatidylinositol 4,5-bisphosphate 3-kinase catalytic subunit alpha isoform (Homo sapiens), P42336 [C420R]; experiment: as §1; conditions: at 10 µM
[15] = tested on: Phosphatidylinositol 4,5-bisphosphate 3-kinase catalytic subunit alpha isoform (Homo sapiens), P42336 [H1047L]; experiment: as §1; conditions: at 10 µM
[16] = tested on: Phosphatidylinositol 4,5-bisphosphate 3-kinase catalytic subunit alpha isoform (Homo sapiens), P42336 [E542K]; experiment: as §1; conditions: at 10 µM
[17] = target: Phosphatidylinositol 4,5-bisphosphate 3-kinase catalytic subunit alpha isoform (Homo sapiens) (UniProt P42336); experiment: as §1; conditions: at 10 µM
Chain of Phosphatidylinositol 4,5-bisphosphate 3-kinase catalytic subunit alpha isoform (Homo sapiens) (P42336 whole entry, canonical isoform): as the sequence (P42336 whole entry M1043I, canonical isoform) above, with I1043M counted along it

[18] = tested on: Phosphatidylinositol 4,5-bisphosphate 3-kinase catalytic subunit alpha isoform (Homo sapiens), P42336 [Q546K]; experiment: as §1; conditions: at 10 µM
Chain of Phosphatidylinositol 4,5-bisphosphate 3-kinase catalytic subunit alpha isoform (Homo sapiens), P42336 [Q546K] (P42336 whole entry Q546K, canonical isoform): as the sequence (P42336 whole entry M1043I, canonical isoform) above, with Q546K, I1043M counted along it

[19] = tested on: Phosphatidylinositol 4,5-bisphosphate 3-kinase catalytic subunit alpha isoform (Homo sapiens), P42336 [H1047Y]; experiment: as §1; conditions: at 10 µM

With C=CC(=O)Nc1ccc(C(=O)Nc2[nH]nc3c2CN(C(=O)N[C@H](CN(C)C)c2ccccc2)C3(C)C)cc1 the % of engagement [1] was 24% and the % of engagement [2] was -2.9%.

Nc1cnc(N2CCc3cc(S(=O)(=O)Nc4c(F)cc(Cl)cc4F)cc(N4CCCC4=O)c32)nc1 [TP-020n] showed a % of control [3] of 97%.

In the case of Cn1cc(-n2cnc3c(NCc4nc5cc(Cl)c(Cl)cc5[nH]4)nc(N4CCOCC4)nc32)cn1, the % of inhibition [4] is reported as -32.1%.

O=C(NOC[C@H](O)CO)c1ccc(F)c(F)c1Nc1ccc(I)cc1F showed a % of control [5] of 93%.

Cc1cnc(Nc2ccc(F)cc2Cl)nc1-c1c[nH]c(C(=O)N[C@H](CO)c2cccc(Cl)c2)c1 was tested, and the Ki [6] was over 4000 nM.

Cc1cc(-c2ccnc(Nc3cnn(C)c3)n2)ccc1CNC(=O)N1CC(OC(C)C)C1 showed a Kd [7] of 880 nM.

With CN1Cc2nccc(-c3cn(C)nc3-c3ccc(F)cc3)c2C1=O the % of inhibition [8] was 10% and the % of inhibition [9] was -1%.

CN(C)CCOc1ccc(-c2nc(-c3ccncc3)c(-c3ccc4c(c3)CC/C4=N\O)[nH]2)cc1 showed a % of control [10] of 83%, a % of control [11] of 81% and a % of control [12] of 84%. It also gave a % of control [13] of 100%, a % of control [14] of 100% and a % of control [15] of 98%. It also gave a % of control [16] of 93%, a % of control [17] of 85% and a % of control [18] of 81%. The % of control [19] was 88%.
